As a reminder, the pEC50 is the EC50 on a negative log10 scale, so that one unit is a factor of ten.

Experimental findings from patent US20190008983A1, “EXTRACELLULAR DRUG CONJUGATES TARGETING CD20” (priority 2015, published 2019) are described below.

pEC50: −log10 of the molar value. Read-outs that look alike come from different tables or passages of the source. Where only a bound is given, the exact number is not on record here.

Series [1] relates to CD20 positive cell line SUDHL4. Briefly: Cell proliferation/cytotoxicity assay (CellTiter-Glo) on SUDHL4 cells. It is filed as cell-based, Human. The following applies: for pEC50: read-out: EC50 in picoM, SUDHL4; for % viab., SUDHL4: figure in brackets after EC50. The method, then:
(§1) These cell lines are the Ramos (Human Burkitt's lymphoma) and SUDHL4 (Non-Hodgkin lymphoma) cell lines. […] Cell viability was then analyzed using the CellTiter-Glo luminescent cell viability assay and standard package insert protocol of the manufacturer (Promega, Madison, Wis.).
(In general: In ATP-based viability assays light output follows the ATP content of the culture.)

The subject of series [2] is CD20 positive cell line Ramos. Briefly: Cell proliferation/cytotoxicity assay (CellTiter-Glo) on Ramos cells. The class given is cell-based, Human. The following applies: for pEC50 / % viab., Ramos: 72 hours incubation; for pEC50: CellTiter-Glo, Tables 1-2, read-out: EC50 in picoM, Ramos; for % viab., Ramos: figure in brackets after EC50. On the procedure:
as §1

Where [3] appears, read: 72 hours incubation, CellTiter-Glo, Tables 1-2.

For `C[C@]12CC[C@H](O)C=C1CC[C@@H]1[C@@H]2CC[C@]2(C)[C@@H](c3ccc(=O)oc3)CC[C@]12O` [Scillarenin, reference compound], the pEC50 in series [1] (Homo sapiens, SU-DHL-4, 72 hours incubation, CellTiter-Glo, Tables 1-2) was 7.74.

Take `C[C@]1(OC(=O)NCCCN2CCN(CCCN)CC2)CC[C@@]2(C)[C@H](CC[C@@H]3[C@@H]2CC[C@]2(C)[C@@](C)(C4=CC(=O)OC4)CC[C@]32O)C1` [CEN-381]: the pEC50 in series [2] and in series [1] (setting [3]) was less than 7.30 in each case.

Turning to `C[C@]12CC[C@H](OC(=O)NCCCNCCCN)C[C@H]1CC[C@@H]1[C@@H]2CC[C@]2(C)[C@H](c3ccc(=O)oc3)CC[C@]12O` [CEN-373], the pEC50 in series [2] is 8.40; in series [1] (setting [3]), 8.23.

In the case of `C[C@]12CC[C@H](O)C[C@H]1CC[C@@H]1[C@@H]2CC[C@]2(C)[C@@H](c3ccc(=O)oc3)CC[C@]12O` [Bufalin, reference compound], in series [1] (Homo sapiens, SU-DHL-4, 72 h), the negative-log EC50 (pEC50) was 7.80.

As to `C[C@]12CC[C@H](O)C[C@H]1CC[C@@H]1[C@@H]2CC[C@]2(C)[C@@H](C3=CC(=O)OC3)CC[C@]12O` [Digitoxigenin, reference compound], the pEC50 in series [1] (Homo sapiens, SU-DHL-4, 72 h) was less than 7.30.

In the case of `C[C@]12CC[C@H](OC3OC[C@H](N)[C@@H](O)[C@@H]3O)C=C1CC[C@@H]1[C@@H]2CC[C@]2(C)[C@@H](c3ccc(=O)oc3)CC[C@]12O` (stereo partly shown) [CEN09-106], the “% viab., Ramos” value in series [2] is given as 0%. Besides, the “activity on Ramos cells in FIG. 8 study” value in series [2] (in the absence of complement, FIG. 8) is “significant but much less potent activity”. In addition, the “% viab., SUDHL4” value in series [1] (72 hours incubation) came out at 0%.

With `CN(CCCN)CCCNC(=O)O[C@H]1CC[C@@]2(C)[C@H](CC[C@@H]3[C@@H]2CC[C@]2(C)[C@H](c4ccc(=O)oc4)CC[C@]32O)C1` [CEN-372], the pEC50 in series [2] is 8.44; in series [1] (setting [3]), 8.36.

`CC12CCC(OC(=O)N3CCNCC3)CC1CCC1C2CCC2(C)C(c3ccc(=O)oc3)CCC12O` (stereo not shown) [CEN-371]: in series [2], the pEC50 was 8.11 and the “% viab., Ramos” value was 0%. The pEC50 in series [1] (setting [3]) is 7.96. In addition, in series [1] (72 hours incubation), the “% viab., SUDHL4” value came to 0%.
